Laboratory results published in patent publication US20260297081A1, “COMPOUNDS AND METHODS OF TREATING CANCERS” (Cullgen Inc., priority 2023, published 2026).

Molecular target: CDK4 (Homo sapiens, UniProt P11802+Q16531)
Test: CDK4 percentage degradation in Calu-1 cells (Table 6)
Type: cell-based
Set-up: Cells that express cyclin D1-3 and CDK4/6 proteins were treated with heterobifunctional compounds; endogenous in cells; host or cells: Calu-1
Conditions: 16 hours; for inhibition at 0.04 µM: 40 nM; for inhibition at 0.2 µM: 200 nM
In short: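 Calu-1 cells exposed to heterobifunctional compounds at 40 nM or 200 nM for 16 h. Cyclin D1 and CDK4 levels measured by Western blot of RIPA lysates (BCA-normalised loading), bands quantified by densitometry and expressed as percentage degradation.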

CDK4, sequence (P11802 2-303 limits assumed): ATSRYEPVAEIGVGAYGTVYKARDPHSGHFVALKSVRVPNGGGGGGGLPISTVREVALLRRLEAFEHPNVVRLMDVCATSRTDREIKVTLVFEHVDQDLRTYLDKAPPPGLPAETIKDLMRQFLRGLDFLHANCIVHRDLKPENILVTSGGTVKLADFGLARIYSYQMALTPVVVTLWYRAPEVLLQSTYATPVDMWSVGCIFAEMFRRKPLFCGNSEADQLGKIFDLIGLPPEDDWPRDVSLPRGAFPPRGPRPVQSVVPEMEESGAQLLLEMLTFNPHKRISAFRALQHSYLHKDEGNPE
CDK4, sequence (P24385 whole entry partner): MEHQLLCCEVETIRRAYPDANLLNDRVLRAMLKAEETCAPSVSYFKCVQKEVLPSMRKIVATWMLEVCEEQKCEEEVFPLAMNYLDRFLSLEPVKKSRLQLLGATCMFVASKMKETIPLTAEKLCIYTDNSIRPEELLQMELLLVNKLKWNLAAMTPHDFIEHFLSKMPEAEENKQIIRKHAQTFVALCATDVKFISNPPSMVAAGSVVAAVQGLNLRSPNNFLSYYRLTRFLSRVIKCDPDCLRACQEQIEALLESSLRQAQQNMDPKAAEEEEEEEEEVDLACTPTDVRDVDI
CDK4, sequence (Q16531 2-1140 limits assumed): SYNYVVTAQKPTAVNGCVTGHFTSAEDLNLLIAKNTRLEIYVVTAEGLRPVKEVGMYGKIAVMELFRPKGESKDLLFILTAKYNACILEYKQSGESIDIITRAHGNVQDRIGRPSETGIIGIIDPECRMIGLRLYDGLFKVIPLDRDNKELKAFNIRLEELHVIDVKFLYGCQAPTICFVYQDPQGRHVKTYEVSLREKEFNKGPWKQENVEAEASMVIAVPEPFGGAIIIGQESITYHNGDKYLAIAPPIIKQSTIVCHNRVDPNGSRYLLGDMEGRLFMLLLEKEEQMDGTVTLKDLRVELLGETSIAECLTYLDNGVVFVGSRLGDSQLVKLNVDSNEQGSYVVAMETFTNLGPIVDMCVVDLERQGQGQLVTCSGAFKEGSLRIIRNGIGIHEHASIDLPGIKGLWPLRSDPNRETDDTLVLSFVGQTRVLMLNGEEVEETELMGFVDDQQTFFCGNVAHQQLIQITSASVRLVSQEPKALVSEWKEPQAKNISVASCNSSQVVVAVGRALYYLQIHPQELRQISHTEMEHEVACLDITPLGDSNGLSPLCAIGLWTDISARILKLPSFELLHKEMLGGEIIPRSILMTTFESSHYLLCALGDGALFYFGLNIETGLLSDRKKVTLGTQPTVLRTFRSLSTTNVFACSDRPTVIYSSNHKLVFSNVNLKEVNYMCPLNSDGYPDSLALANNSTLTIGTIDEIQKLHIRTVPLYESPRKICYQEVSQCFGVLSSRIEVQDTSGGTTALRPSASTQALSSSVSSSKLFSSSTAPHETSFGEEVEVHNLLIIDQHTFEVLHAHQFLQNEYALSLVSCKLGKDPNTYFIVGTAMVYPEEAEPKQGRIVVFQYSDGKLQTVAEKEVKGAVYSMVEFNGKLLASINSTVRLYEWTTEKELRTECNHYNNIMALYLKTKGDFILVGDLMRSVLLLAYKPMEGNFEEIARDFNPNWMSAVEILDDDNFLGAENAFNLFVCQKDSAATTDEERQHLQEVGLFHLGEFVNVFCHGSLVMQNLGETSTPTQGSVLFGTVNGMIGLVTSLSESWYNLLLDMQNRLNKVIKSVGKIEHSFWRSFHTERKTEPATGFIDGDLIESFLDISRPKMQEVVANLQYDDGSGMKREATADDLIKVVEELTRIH

| inhibition at 0.04 µM [%] | inhibition at 0.2 µM [%] | SMILES |
| --- | --- | --- |
| 50 to 80 | > 80 | CNc1ccc(C(=O)Nc2cccc(C3CC3)n2)c(NC2CC3(CC(NC(=O)CN4CCN(c5ccc(Nc6ncc7c(C)c(C(C)=O)c(=O)n(C8CCCC8)c7n6)nc5)CC4)C3)C2)n1 (centres unmarked) [CPD-72, 2-((6-(2-(4-(6-((6-Acetyl-8-cyclopentyl-5-methyl-7-oxo-7,8-dihydropyrido[2,3-d]pyrimidin-2-yl)amino)pyridin-3-yl)piperazin-1-yl)acetamido)spiro[3.3]heptan-2-yl)amino)-N-(6-cyclopropylpyridin-2-yl)-6-(methylamino)nicotinamide] |
| < 30 | < 30 | CNc1ccc(C(=O)Nc2ccc(C3CC3)nc2)c(NC2CC3(CC(NC(=O)CN4CCN(c5ccc(Nc6ncc7c(C)c(C(C)=O)c(=O)n(C8CCCC8)c7n6)nc5)CC4)C3)C2)n1 (centres unmarked) [CPD-74, 2-((6-(2-(4-(6-((6-Acetyl-8-cyclopentyl-5-methyl-7-oxo-7,8-dihydropyrido[2,3-d]pyrimidin-2-yl)amino)pyridin-3-yl)piperazin-1-yl)acetamido)spiro[3.3]heptan-2-yl)amino)-N-(6-cyclopropylpyridin-3-yl)-6-(methylamino)nicotinamide] |
| < 30 | 30 to 50 | CC(=O)c1c(C)c2cnc(Nc3ccc(N4CCN(CC(=O)NC5CC6(C5)CC(Nc5nc(C)ccc5C(=O)Nc5cccc(C7CC7)n5)C6)CC4)cn3)nc2n(C2CCCC2)c1=O (centres unmarked) [CPD-120, 2-((6-(2-(4-(6-((6-Acetyl-8-cyclopentyl-5-methyl-7-oxo-7,8-dihydropyrido[2,3-d]pyrimidin-2-yl)amino)pyridin-3-yl)piperazin-1-yl)acetamido)spiro[3.3]heptan-2-yl)amino)-N-(6-cyclopropylpyridin-2-yl)-6-methylnicotinamide] |
| 30 to 50 | 50 to 80 | CC(=O)c1c(C)c2cnc(Nc3ccc(N4CCN(CC(=O)NC5CC6(C5)CC(Nc5nc(C)ccc5C(=O)Nc5cn(C)c(C7CC7)n5)C6)CC4)cn3)nc2n(C2CCCC2)c1=O (centres unmarked) [CPD-207, 2-((6-(2-(4-(6-((6-acetyl-8-cyclopentyl-5-methyl-7-oxo-7,8-dihydropyrido[2,3-d]pyrimidin-2-yl)amino)pyridin-3-yl)piperazin-1-yl)acetamido)spiro[3.3]heptan-2-yl)amino)-N-(2-cyclopropyl-1-methyl-1H-imidazol-4-yl)-6-methylnicotinamide] |
| 30 to 50 | 50 to 80 | CNc1ccc(C(=O)Nc2cc(C)n(C(C)C)n2)c(NC2CC3(CC(NC(=O)CN4CCN(c5ccc(Nc6ncc7c(C)c(C(C)=O)c(=O)n(C8CCCC8)c7n6)nc5)CC4)C3)C2)n1 (centres unmarked) [CPD-99, 2-((6-(2-(4-(6-((6-Acetyl-8-cyclopentyl-5-methyl-7-oxo-7,8-dihydropyrido[2,3-d]pyrimidin-2-yl)amino)pyridin-3-yl)piperazin-1-yl)acetamido)spiro[3.3]heptan-2-yl)amino)-N-(1-isopropyl-5-methyl-1H-pyrazol-3-yl)-6-(methylamino)nicotinamide] |
| < 30 | < 30 | CNc1ccc(C(=O)Nc2cc(C3CC3)on2)c(NC2CC3(CC(NC(=O)CN4CCN(c5ccc(Nc6ncc7c(C)c(C(C)=O)c(=O)n(C8CCCC8)c7n6)nc5)CC4)C3)C2)n1 (centres unmarked) [CPD-215, 2-((6-(2-(4-(6-((6-acetyl-8-cyclopentyl-5-methyl-7-oxo-7,8-dihydropyrido[2,3-d]pyrimidin-2-yl)amino)pyridin-3-yl)piperazin-1-yl)acetamido)spiro[3.3]heptan-2-yl)amino)-N-(5-cyclopropylisoxazol-3-yl)-6-(methylamino)nicotinamide] |
| < 30 | 50 to 80 | CNc1ccc(C(=O)Nc2cccc(C)n2)c(NC2CC3(C2)CN(C(=O)C(C)(C)N2CCN(c4ccc(Nc5ncc6c(C)c(C(C)=O)c(=O)n(C7CCCC7)c6n5)nc4)CC2)C3)n1 [CPD-176, 2-((2-(2-(4-(6-((6-acetyl-8-cyclopentyl-5-methyl-7-oxo-7,8-dihydropyrido[2,3-di]pyrimidin-2-yl)amino)pyridin-3-yl)piperazin-1-yl)-2-methylpropanoyl)-2-azaspiro[3.3]heptan-6-yl)amino)-6-(methylamino)-N-(6-methylpyridin-2-yl)nicotinamide] |
| 30 to 50 | 50 to 80 | CNc1cccc(NC(=O)c2ccc(NC)nc2NC2CC3(CC(NC(=O)CN4CCN(c5ccc(Nc6ncc7c(C)c(C(C)=O)c(=O)n(C8CCCC8)c7n6)nc5)CC4)C3)C2)n1 (centres unmarked) [CPD-181, 2-((6-(2-(4-(6-((6-acetyl-8-cyclopentyl-5-methyl-7-oxo-7,8-dihydropyrido[2,3-d]pyrimidin-2-yl)amino)pyridin-3-yl)piperazin-1-yl)acetamido)spiro[3.3]heptan-2-yl)amino)-6-(methylamino)-N-(6-(methylamino)pyridin-2-yl)nicotinamide] |
| 30 to 50 | 50 to 80 | CNc1ccc(C(=O)Nc2ccc(N(C)C)nn2)c(NC2CCN(CCNC(=O)CN3CCN(c4ccc(Nc5ncc6c(C)c(C(C)=O)c(=O)n(C7CCCC7)c6n5)nc4)CC3)C2)n1 (centres unmarked) [CPD-106, 2-((1-(2-(2-(4-(6-((6-Acetyl-8-cyclopentyl-5-methyl-7-oxo-7,8-dihydropyrido[2,3-d]pyrimidin-2-yl)amino)pyridin-3-yl)piperazin-1-yl)acetamido)ethyl)pyrrolidin-3-yl)amino)-N-(6-(dimethylamino)pyridazin-3-yl)-6-(methylamino)nicotinamide] |

The next lines start with the molecule.

| SMILES | inhibition at 0.04 µM [%] | inhibition at 0.2 µM [%] |
| --- | --- | --- |
| CNc1ccc(C(=O)Nc2nc(C3CC3)c(C)s2)c(NCCCCCNC(=O)CN2CCN(c3ccc(Nc4ncc5c(C)c(C(C)=O)c(=O)n(C6CCCC6)c5n4)nc3)CC2)n1 [CPD-56, 2-((5-(2-(4-(6-((6-Acetyl-8-cyclopentyl-5-methyl-7-oxo-7,8-dihydropyrido[2,3-d]pyrimidin-2-yl)amino)pyridin-3-yl)piperazin-1-yl)acetamido)pentyl)amino)-N-(4-cyclopropyl-5-methylthiazol-2-yl)-6-(methylamino)nicotinamide] | 50 to 80 | 50 to 80 |
| CNc1ccc(C(=O)Nc2ccc(N(C)C)nn2)c(NC2CC(OCC(=O)N3CCN(c4ccc(Nc5ncc6c(C)c(C(C)=O)c(=O)n(C7CCCC7)c6n5)nc4)CC3)C2)n1 (centres unmarked) [CPD-168, 2-((3-(2-(4-(6-((6-acetyl-8-cyclopentyl-5-methyl-7-oxo-7,8-dihydropyrido[2,3-d]pyrimidin-2-yl)amino)pyridin-3-yl)piperazin-1-yl)-2-oxoethoxy)cyclobutyl)amino)-N-(6-(dimethylamino)pyridazin-3-yl)-6-(methylamino)nicotinamide] | 50 to 80 | > 80 |
| CC(=O)c1c(C)c2cnc(Nc3ccc(N4CCN(CC(=O)NCCCCCCCNc5nc(C)ccc5C(=O)Nc5ccc(C)c(C6CC6)n5)CC4)cn3)nc2n(C2CCCC2)c1=O [CPD-9, 2-((7-(2-(4-(6-((6-acetyl-8-cyclopentyl-5-methyl-7-oxo-7,8-dihydropyrido[2,3-d]pyrimidin-2-yl)amino)pyridin-3-yl)piperazin-1-yl)acetamido)heptyl)amino)-N-(6-cyclopropyl-5-methylpyridin-2-yl)-6-methylnicotinamide] | 50 to 80 | > 80 |
| CNc1ccc(C(=O)Nc2ccc(C3CC3)nn2)c(NCCCCCNC(=O)CN2CCN(c3ccc(Nc4ncc5c(C)c(C(C)=O)c(=O)n(C6CCCC6)c5n4)nc3)CC2)n1 [CPD-31, 2-((5-(2-(4-(6-((6-Acetyl-8-cyclopentyl-5-methyl-7-oxo-7,8-dihydropyrido[2,3-d]pyrimidin-2-yl)amino)pyridin-3-yl)piperazin-1-yl)acetamido)pentyl)amino)-N-(6-cyclopropylpyridazin-3-yl)-6-(methylamino)nicotinamide] | < 30 | 50 to 80 |
| [2H]C([2H])([2H])Nc1ccc(C(=O)Nc2cc(C)n(C)n2)c(NC2CN(C(=O)C(F)(F)CN3CCN(c4ccc(Nc5ncc6c(C)c(C(C)=O)c(=O)n(C7CCCC7)c6n5)nc4)CC3)C2)n1 [CPD-233, 2-((1-(3-(4-(6-((6-acetyl-8-cyclopentyl-5-methyl-7-oxo-7,8-dihydropyrido[2,3-d]pyrimidin-2-yl)amino)pyridin-3-yl)piperazin-1-yl)-2,2-difluoropropanoyl)azetidin-3-yl)amino)-N-(1,5-dimethyl-1H-pyrazol-3-yl)-6-((methyl-d3)amino)nicotinamide] | < 30 | 30 to 50 |
| CNc1ccc(C(=O)Nc2ccc(N(C)C)nn2)c(N(C)CCCCCNC(=O)CN2CCN(c3ccc(Nc4ncc5c(C)c(C(C)=O)c(=O)n(C6CCCC6)c5n4)nc3)CC2)n1 [CPD-23, 2-((5-(2-(4-(6-((6-Acetyl-8-cyclopentyl-5-methyl-7-oxo-7,8-dihydropyrido[2,3-d]pyrimidin-2-yl)amino)pyridin-3-yl)piperazin-1-yl)acetamido)pentyl)(methyl)amino)-N-(6-(dimethylamino)pyridazin-3-yl)-6-(methylamino)nicotinamide] | < 30 | < 30 |
| CC(=O)c1c(C)c2cnc(Nc3ccc(N4CCN(CC(=O)NCCC5CC(Nc6cc(Cl)ccc6C(=O)Nc6ccc(C)c(C7CC7)n6)C5)CC4)cn3)nc2n(C2CCCC2)c1=O (centres unmarked) [CPD-255, 2-((3-(2-(2-(4-(6-((6-Acetyl-8-cyclopentyl-5-methyl-7-oxo-7,8-dihydropyrido[2,3-d]pyrimidin-2-yl)amino)pyridin-3-yl)piperazin-1-yl)acetamido)ethyl)cyclobutyl)amino)-4-chloro-N-(6-cyclopropyl-5-methylpyridin-2-yl)benzamide] | < 30 | 50 to 80 |
